Where “and” joins values, the source holds several entries; their conditions need not be identical. Identical values can stand only once.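 48-hour exposure; five concentrations; linearly interpolated endpoints. GI50 marks 50% less growth. Definition used: TGI = concentration required for complete inhibition of growth.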
Tests used:
[1] = test system: SN12K1 renal; assay: NCI tumour cell line growth inhibition, 48 h
[2] = test system: P388 leukemia; assay: NCI tumour cell line growth inhibition, 48 h

SMILES	TGI [1]	TGI [2]	GI50 [1] [µM]	GI50 [2] [µM]
S=c1nc[nH]c2nc[nH]c12	527 µM	242 µM		
COC1=C(C)C(=O)C2=C(C1=O)C(CO)N1C(C#N)C3CC4C(C1C2N1CCOC41)N3C (centres undefined)	17.4 µM			
COc1ccc2[nH]c3c(C)c4cc[n+](C)cc4c(C)c3c2c1	2.96 µM and 2.75 µM and 1.85 µM	19.1 µM and 10.8 µM and 16.5 µM	0.146	1.78
CC(C)[C@](O)(C(=O)OCC1=CC[N+]2([O-])CC[C@@H](O)[C@@H]12)[C@H](C)O (some centres undefined)	> 10000 µM	> 10000 µM		

Source: PubChem BioAssay (NCI)
